Measurements: patent US20230348454A1, “COMPOUNDS AS MODULATORS OF BIS-PHOSPHOGLYCERATE MUTASE FOR THE TREATMENT OF SICKLE CELL DISEASE” (Genzyme Corporation, priority 2020, published 2023)
Where two headings read alike, the source gives them in different places.

How the values were obtained:
[1] = test system: human red blood cells; assay: Human cell-based assay (2,3-BPG, ATP by LC/MS); conditions: Erythrocyte, whole blood suspension, 37° C., 24 h, read-out: hRBC EC50
Method: The following materials were used in this assay: DMSO; Hemox buffer (30 mM TES, 135 mM NaCl, 5 mM KCl, pH 7.4); Inosine (100 mM in hemox buffer); Glucose (1 M in water); human red blood cells; LC/MS Optima grade methanol; LC/MS Optima grade water; and Incubation buffer (30 mM TES, 135 mM NaCl, 5 mM KCl, 50 mM inosine, 20 mM glucose pH 7.4).
Test compounds were loaded onto a 96-well plate (final concentration of DMSO was 1%). 10 mL whole blood was resuspended with an equivalent amount of 2× incubation buffer to make 25% het & 50% plasma solution. The final solution contains 10 mM glucose and 25 mM inosine. The blood suspension (100 uL) was added to the wells of the plate. The plate was covered with an adhesive foil cover and plastic lid, and incubated at 37° C. for 24 h. The samples were extracted through an SPE column and the metabolites (2,3-BPG, ATP) were analyzed by LC/MS.

[2] = molecular target: T1, hBPGM (Homo sapiens, UniProt P07738); assay: BPGM synthase assay; type: biochemical
T1 sequence (P07738 1-259): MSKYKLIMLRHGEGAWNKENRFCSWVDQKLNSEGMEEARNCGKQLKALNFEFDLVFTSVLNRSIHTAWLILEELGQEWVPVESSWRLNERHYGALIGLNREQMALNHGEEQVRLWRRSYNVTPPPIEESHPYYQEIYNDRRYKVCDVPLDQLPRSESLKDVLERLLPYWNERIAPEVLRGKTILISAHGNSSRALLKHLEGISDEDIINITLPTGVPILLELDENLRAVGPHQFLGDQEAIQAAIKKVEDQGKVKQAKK
In short: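 The enzyme solution held 5 nM BPGM with 0.4 U/mL coupling GAPDH in Tris pH 7.4, 3.23 mM KH2PO4, 1 mM DTT, and compounds were pre-incubated 30 min at RT. Substrate solution (2 mM NAD, 20 μM 3PG, 800 μM GAP) reacted 60 min before a koningic acid quench. NADH fluorescence (360/460) and diaphorase/resazurin-derived resorufin (544/590) were read.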

[3] = molecular target: T2, human Bisphosphoglycerate mutase (hBPGM) (Homo sapiens, UniProt P07738); assay: BPGM phosphatase assay; type: biochemical
T2 sequence (P07738 1-259): T1 sequence (P07738 1-259)
Method: The following materials were used in this assay: Tris buffer (50 mM Tris, 0.01% Tween 20, pH 7.4); cyclohexylammonium salt of 2,3-BPG (stock solution of 500 mM in ultapure distilled water; human Bisphosphoglycerate mutase (hBPGM; stock solution of 110 μM in Standard Buffer); 3-Phosphoglyceric acid (3-PG; stock solution of 100 mM in ultrapure distilled water); 384-Well Polystyrene Plates (Fisherbrand™, Catalog No.: 12-566-625); BIOMOL GREEN REAGENT (Enzo life sciences, BML-AK111-0250); and 1 mM DMSO stock of exemplary compounds.
A 3-PG enzyme mix solution (final enzyme concentration 62.5 nM, 3-PG concentration at 50 µM, 14.5 uL) was added to onto a 384-well clear plate. Solutions of the test compounds were then added to the plate and the DMSO content was normalized across the plate. The plate was incubated at RT for 15 min. Next, the substrate 2,3-BPG (5 μL) was added to all the wells, and the plate was sealed and incubated for 24 hr at RT. After incubation, BIOMOL green dye (40 μL) was added to all the wells, the plate was shaken to mix, and the plate was incubated at RT for 20-30 min. Absorbance measurements were recorded at 620 nm.

[4] = Table 6, read-out: huBPGM: synthase Enzyme IC50
[5] = Table 6, read-out: huBPGM: phosphatase Enzyme EC50

Row | SMILES | EC50 [1] [nM] | IC50 [2, 4] [nM] | EC50 [3, 5] [nM] | IC50 ([2]; Table 3, read-out: hBPGM Synthase IC50) [nM] | EC50 ([3]; Table 4, read-out: hBPGM Phosphatase EC50) [nM]
1 | Cc1nc(COC(=O)N(C)C)sc1-c1cccc(-c2cc(F)c3nn[nH]c3c2F)n1 [Example 125] | – | 23 | 2700 | – | –
2 | COC(=O)NCc1nc(C)c(-c2csc(-c3ccc4[nH]nnc4c3F)n2)s1 [Example 166] | – | 110 | 170 | – | –
3 | Cc1nc(CNC(=O)c2cccnn2)sc1-c1cccc(-c2cc(F)c(O)c(F)c2F)n1 [Example 164] | – | 680 | 550 | – | –
4 | Cc1nc(CNC(=O)c2cccnn2)sc1-c1csc(-c2cc(F)c(O)c(F)c2F)n1 [Example 188] | – | 84 | 140 | – | –

Other lines, results leading:

Row | EC50 [1] [nM] | IC50 [2, 4] [nM] | EC50 [3, 5] [nM] | IC50 ([2]; Table 3, read-out: hBPGM Synthase IC50) [nM] | EC50 ([3]; Table 4, read-out: hBPGM Phosphatase EC50) [nM] | SMILES
5 | 22500 | – | – | – | – | COC(=O)NCc1nc(C)c(-c2csc(-c3cc(F)c4[nH]nnc4c3F)n2)s1 [compound 16]
6 | – | 410 | 180 | – | – | Cc1nc(CNC(=O)c2cccnn2)sc1-c1csc(-c2cc(F)c(O)c(F)c2)n1 [Example 201]
7 | – | 170 | 32 | 169 | 55 | COC(=O)NCc1nc(C)c(-c2csc(-c3ccc(C(=O)NS(=O)(=O)c4ccccc4)cc3)n2)s1 [compound 13]
